For seven molecules, EC50 and inhibition results are on record in patent publication US7084155B2, “Chemokine receptor binding heterocyclic compounds” (AnorMED, priority 2000, dated 2006).

Holding throughout (assay type): cell-based
For assay [1], the system named is HIV-1 BaL. Nature of the assay: Inhibition of HIV-1 BaL (CCR5 using) replication in PHA-stimulated PBMC's, viral p24 antigen expression. To be noted: Human immunodeficiency virus 1, BAL.
Assay [2] has as its system HIV-1 NL4.3 or IIIB. Nature of the assay: Inhibition of HIV-1 (NL4.3 or IIIB, CXCR4 using) replication in MT-4 cells, MTT viability. To be noted: Human immunodeficiency virus 1, IIIB, MT4, concentration protecting 50% of virus-infected cells against viral cytopathicity. An outline of the steps:
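MT-4 cells infected at MOI 0.01 (100 × CCID50) with test compound at various concentrations, cytotoxicity run in parallel on uninfected cells. Viable cells quantified by MTT colorimetry after 5 days of proliferation. EC50 is the concentration protecting 50% of infected cells from viral cytopathicity.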
On the technique in general: Damage to the host cells serves as the signal in cytopathic effect assays.

Assay [3] deals with SDF-1 induced Ca flux in SUP-T1 cells. Nature of the assay: Inhibition of chemokine (SDF-1) induced Ca flux measured on a FLIPR. Particulars: Homo sapiens. An outline of the steps: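 Fluo-3-loaded SUP-T1 cells (3×10^5 per well) preincubated with compound for 10 min at 37° C in HBSS/20 mM Hepes/0.2% BSA, pH 7.4, then stimulated with SDF-1. Fluorescence read on a FLIPR for 4 min after a 20-second baseline.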

In the case of `Cc1cc(CNCc2ccc(CN(Cc3nc4ccccc4[nH]3)C3CCCc4cccnc43)cc2)cc(C)n1` (stereo not drawn) [Example 62, N-(2,6-dimethyl-4-pyridinylmethyl)-N′-(1H-benzimidazol-2-ylmethyl)-N′-(5,6,7,8-tetrahydro-8-quinolinyl)-1,4-benzenedimethanamine], the EC50 in assay [1] and in assay [2] was below 20 µg/mL each time. In addition, in assay [3], the inhibition (in general, the percentage by which the read-out fell short of the control) at 20 µg/mL was above 20%.
For the molecule `c1cnc2c(c1)CCCC2N(Cc1ccc(CNCc2cc3ccccc3cn2)cc1)Cc1nc2ccccc2[nH]1` (stereo not drawn) [Example 63, N-(3-isoquinolinylmethyl)-N′-(1H-benzimidazol-2-ylmethyl)-N′-(5,6,7,8-tetrahydro-8-quinolinyl)-1,4-benzenedimethanamine], the EC50 in assay [1] and in assay [2] was below 20 µg/mL throughout. This molecule returned an inhibition at 20 µg/mL in assay [3] above 20%.
Take `COc1cc(CNCc2ccc(CN(Cc3nc4ccccc4[nH]3)C3CCCc4cccnc43)cc2)nc2ccccc12` (stereo not drawn) [Example 64, N-(4-methoxy-2-quinolinylmethyl)-N′-(1H-benzimidazol-2-ylmethyl)-N′-(5,6,7,8-tetrahydro-8-quinolinyl)-1,4-benzenedimethanamine]: the 50% effective concentration (EC50) in assay [1] and in assay [2] was below 20 µg/mL each time. The molecule further had an inhibition at 20 µg/mL in assay [3] above 20%.
With `CC(NCc1ccc(CN(Cc2nc3ccccc3[nH]2)C2CCCc3cccnc32)cc1)c1ccccn1` (stereo not drawn) [Example 66, N-[1-(2-pyridinyl)eth-1-yl]-N′-(1H-benzimidazol-2-ylmethyl)-N′-(5,6,7,8-tetrahydro-8-quinolinyl)-1,4-benzenedimethanamine], the concentration giving a half-maximal response (EC50) in assay [1] and in assay [2] was below 20 µg/mL each time. In addition, the inhibition at 20 µg/mL in assay [3] is above 20%.
For `c1ccc(CNCc2ccc(CN(CCNCc3nc4ccccc4[nH]3)C3CCCc4cccnc43)cc2)nc1` (stereo not drawn) [Example 67, N-(2-pyridinylmethyl)-N′-[2-[(1H-benzimidazol-2-ylmethyl)amino]ethyl]-N′-(5,6,7,8-tetrahydro-8-quinolinyl)-1,4-benzenedimethanamine], the EC50 in assay [1] and in assay [2] was below 20 µg/mL each time. In assay [3], the inhibition at 20 µg/mL is above 20%.
As to `Oc1ccccc1CNCc1ccc(CN(Cc2nc3ccccc3[nH]2)C2CCCc3cccnc32)cc1` (stereo not drawn) [Example 68, N-(2-hydroxyphenylmethyl)-N′-(1H-benzimidazol-2-ylmethyl)-N′-(5,6,7,8-tetrahydro-8-quinolinyl)-1,4-benzenedimethanamine], the EC50 in assay [1] and in assay [2] was below 20 µg/mL throughout. For the same molecule, the inhibition at 20 µg/mL in assay [3] is above 20%.
Turning to `c1ccc(CNCc2ccc(CN[C@H]3CCCC[C@H]3NCc3ccccn3)cc2)nc1` [Example 134, N-(2-pyridinylmethyl)-N′-[cis-2-[(N-pyridin-2-ylmethyl)amino]cyclohexyl]-1,4-benzenedimethanamine], the EC50 in assay [1] and in assay [2] was below 20 µg/mL throughout. For the same molecule, the inhibition at 20 µg/mL in assay [3] is above 20%.
